Data taken from article PMC12000418, “Ubiquitin is directly linked via an ester to protein-conjugated mono-ADP-ribose” (The EMBO Journal, 2025).

What was measured:
DTX2 = biological target: T1, DTX2 (Homo sapiens, UniProt Q86UW9); experiment: In vitro ubiquitylation of NAD+ ([…]) by purified DTX2 and E2~Ub, silver-stained gel; type: biochemical
T1 construct: RING-DTC domain, residues 389–622; with UBE2D3~Ub conjugate

PARP10 = biological target: T2, PARP10 (Homo sapiens, UniProt Q53GL7); experiment: Dose-response inhibition of GFP-PARP10 auto-MARylation in HEK […] cells, western blot; type: cell-based
T2 construct: GFP-PARP10, doxycycline-inducible in HEK 293 cells
T2 sequence (Q53GL7 1-1025): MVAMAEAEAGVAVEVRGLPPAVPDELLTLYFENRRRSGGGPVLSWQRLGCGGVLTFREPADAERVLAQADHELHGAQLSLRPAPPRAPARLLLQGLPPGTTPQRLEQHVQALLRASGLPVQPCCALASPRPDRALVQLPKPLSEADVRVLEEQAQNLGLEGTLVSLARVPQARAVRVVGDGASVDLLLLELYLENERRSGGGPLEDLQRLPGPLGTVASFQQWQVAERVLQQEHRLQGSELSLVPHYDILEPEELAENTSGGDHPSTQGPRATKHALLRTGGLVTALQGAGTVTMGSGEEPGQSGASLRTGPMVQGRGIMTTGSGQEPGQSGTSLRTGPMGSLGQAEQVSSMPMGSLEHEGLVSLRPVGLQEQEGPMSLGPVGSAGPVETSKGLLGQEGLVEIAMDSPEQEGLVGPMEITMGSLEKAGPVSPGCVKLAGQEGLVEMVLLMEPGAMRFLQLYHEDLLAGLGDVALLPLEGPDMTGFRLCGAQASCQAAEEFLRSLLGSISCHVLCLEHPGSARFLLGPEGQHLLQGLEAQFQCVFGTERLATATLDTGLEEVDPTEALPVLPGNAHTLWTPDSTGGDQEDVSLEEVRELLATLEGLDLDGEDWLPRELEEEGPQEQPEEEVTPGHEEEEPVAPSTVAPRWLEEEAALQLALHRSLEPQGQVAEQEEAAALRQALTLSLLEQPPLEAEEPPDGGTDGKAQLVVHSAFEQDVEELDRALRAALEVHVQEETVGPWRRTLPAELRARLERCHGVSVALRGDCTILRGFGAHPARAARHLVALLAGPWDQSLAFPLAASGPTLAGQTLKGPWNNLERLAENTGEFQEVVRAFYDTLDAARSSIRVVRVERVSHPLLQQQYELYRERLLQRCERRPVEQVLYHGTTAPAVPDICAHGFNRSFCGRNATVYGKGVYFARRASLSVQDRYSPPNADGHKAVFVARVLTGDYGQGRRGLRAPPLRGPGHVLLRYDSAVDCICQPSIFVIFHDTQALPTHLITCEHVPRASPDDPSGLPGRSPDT

T1 sequence (Q86UW9 389-622): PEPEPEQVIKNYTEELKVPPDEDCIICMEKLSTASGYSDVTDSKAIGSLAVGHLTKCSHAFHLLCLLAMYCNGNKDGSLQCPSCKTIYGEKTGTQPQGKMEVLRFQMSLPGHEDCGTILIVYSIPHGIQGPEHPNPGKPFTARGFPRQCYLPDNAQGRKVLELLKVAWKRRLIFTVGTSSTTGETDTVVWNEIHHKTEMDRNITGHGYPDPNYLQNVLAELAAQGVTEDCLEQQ
T1 sequence (P61077 whole entry partner, the tested form may be a part): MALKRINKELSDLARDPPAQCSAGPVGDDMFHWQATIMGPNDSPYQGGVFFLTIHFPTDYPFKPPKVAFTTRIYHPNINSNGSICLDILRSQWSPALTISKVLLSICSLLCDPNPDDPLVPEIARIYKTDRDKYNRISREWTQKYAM

Row | Molecule | In vitro ubiquitylation of NAD+ (0.2 mM) by purified DTX2 and E2~Ub, silver-stai (DTX2) | IC50 (PARP10)
1 | NC(=O)c1ccc[n+]([C@@H]2O[C@H](COP(=O)([O-])OP(=O)(O)OC[C@H]3O[C@@H](n4cnc5c(N)ncnc54)[C@H](O)[C@@H]3O)[C@@H](O)[C@H]2O)c1 [NAD^+] | DTX2 could readily conjugate Ub to NAD^+ and ADPr to form Ub ester-linked NAD^+ (NAD^+-Ube) | –
2 | RBN010860 | – | 51.4 nM
